In ChEMBL document CHEMBL3400047, “Synthesis and binding properties of new long-chain 4-substituted piperazine derivatives as 5-HT₁A and 5-HT₇ receptor ligands” (Bioorg Med Chem Lett, 2015) one finds Ki, Ratio Ki and inhibition data, which are given here for 27 compounds.

Where only a bound is given, the exact number is not on record here.

Assay [1] addresses T1, 5-hydroxytryptamine receptor 7 (Homo sapiens, UniProt P34969). In words: Displacement of [3H]-8-OH-DPAT from human 5-HT7 receptor expressed in CHOK1 cells after 30 mins by liquid scintillation counting analysis. The format is cell-based, CHO-K1.
Assay [2] deals with T2, 5-hydroxytryptamine receptor 1A (Homo sapiens, UniProt P08908).
T2 sequence (P08908 whole entry): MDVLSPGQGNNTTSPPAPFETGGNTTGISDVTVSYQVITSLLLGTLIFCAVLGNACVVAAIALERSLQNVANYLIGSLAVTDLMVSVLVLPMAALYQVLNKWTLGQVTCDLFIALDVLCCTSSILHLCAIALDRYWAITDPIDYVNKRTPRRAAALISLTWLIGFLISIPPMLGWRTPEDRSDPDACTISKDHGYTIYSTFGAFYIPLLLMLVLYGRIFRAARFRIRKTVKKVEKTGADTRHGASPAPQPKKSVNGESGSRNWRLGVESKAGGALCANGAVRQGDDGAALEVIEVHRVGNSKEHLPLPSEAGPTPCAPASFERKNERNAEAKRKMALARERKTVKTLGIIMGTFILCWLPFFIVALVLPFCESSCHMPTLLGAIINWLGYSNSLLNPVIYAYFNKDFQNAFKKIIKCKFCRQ
In words: Displacement of [3H]-5-HT from human 5-HT1A receptor expressed in CHOK1 cells after 30 mins by liquid scintillation counting analysis. The format is cell-based, CHO-K1. For orientation: In a radioligand displacement assay an active substance lowers the binding of a labelled ligand.

The species entered for assay [3] is Homo sapiens. Briefly: Selectivity ratio of Ki for human 5-HT7 receptor to Ki for human 5-HT1A receptor.
Assay [4] concerns the target 5-hydroxytryptamine receptor 1B (Homo sapiens) (UniProt P28222). In words: Antagonist activity at human […] receptor expressed in HEK293 cells assessed as inhibition of 5-CT-induced cAMP production at 1 uM after 30 mins by TR-FRET assay. The format is functional, cell-based. For orientation: Cyclic AMP is a second messenger, typically raised through Gs and lowered through Gi signalling.

The target of assay [5] is T1, 5-hydroxytryptamine receptor 7. In words: Displacement of [3H]-8-OH-DPAT from human 5-HT7 receptor expressed in CHOK1 cells at 10^-5 M after 30 mins by liquid scintillation counting analysis. The format is cell-based. The following applies: CHO-K1.
Assay [6] deals with T3, 5-hydroxytryptamine receptor 1A (Rattus norvegicus, UniProt P19327).
T3 sequence (P19327 whole entry): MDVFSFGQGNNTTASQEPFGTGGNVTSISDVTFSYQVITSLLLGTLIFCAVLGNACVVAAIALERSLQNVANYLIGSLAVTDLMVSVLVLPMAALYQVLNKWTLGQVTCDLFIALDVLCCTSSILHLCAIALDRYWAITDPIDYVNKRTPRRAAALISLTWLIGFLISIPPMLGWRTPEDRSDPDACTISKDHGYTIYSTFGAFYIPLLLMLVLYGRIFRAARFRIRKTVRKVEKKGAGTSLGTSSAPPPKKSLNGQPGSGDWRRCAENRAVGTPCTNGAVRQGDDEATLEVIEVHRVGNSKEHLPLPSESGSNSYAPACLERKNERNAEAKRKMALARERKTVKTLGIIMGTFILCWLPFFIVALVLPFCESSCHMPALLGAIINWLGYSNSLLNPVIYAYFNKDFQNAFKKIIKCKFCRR
Briefly: Binding affinity to rat hippocampus 5-HT1A receptor.

Assay [7] is filed under the species Homo sapiens. Briefly: Selectivity ratio of Ki for human 5-HT1A receptor to Ki for human 5-HT7 receptor.

T1 sequence (P34969 whole entry): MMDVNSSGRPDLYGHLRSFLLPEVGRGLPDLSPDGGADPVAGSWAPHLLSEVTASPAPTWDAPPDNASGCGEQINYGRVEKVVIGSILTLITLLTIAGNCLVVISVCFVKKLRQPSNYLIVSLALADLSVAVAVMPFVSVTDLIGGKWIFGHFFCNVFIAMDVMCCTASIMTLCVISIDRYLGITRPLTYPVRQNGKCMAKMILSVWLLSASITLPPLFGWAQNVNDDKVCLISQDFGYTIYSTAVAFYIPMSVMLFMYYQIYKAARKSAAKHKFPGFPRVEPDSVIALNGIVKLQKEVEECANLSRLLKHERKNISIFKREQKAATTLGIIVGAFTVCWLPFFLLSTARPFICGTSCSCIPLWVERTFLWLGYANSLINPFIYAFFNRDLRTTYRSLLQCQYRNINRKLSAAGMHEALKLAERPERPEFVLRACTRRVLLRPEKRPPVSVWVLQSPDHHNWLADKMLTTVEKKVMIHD
Sequence of 5-hydroxytryptamine receptor 1B (Homo sapiens) (P28222 whole entry): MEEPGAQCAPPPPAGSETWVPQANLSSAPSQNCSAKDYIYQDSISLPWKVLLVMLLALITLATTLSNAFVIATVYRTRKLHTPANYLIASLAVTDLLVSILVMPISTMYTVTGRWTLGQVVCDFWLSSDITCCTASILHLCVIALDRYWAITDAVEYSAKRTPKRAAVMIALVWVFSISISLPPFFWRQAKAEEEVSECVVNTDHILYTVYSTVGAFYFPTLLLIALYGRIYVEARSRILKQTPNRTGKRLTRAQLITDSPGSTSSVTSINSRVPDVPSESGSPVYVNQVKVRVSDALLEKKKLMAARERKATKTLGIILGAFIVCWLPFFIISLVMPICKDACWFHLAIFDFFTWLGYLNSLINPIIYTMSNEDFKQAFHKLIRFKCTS

As for `O=c1[nH]c(CCCCCN2CCN(c3ccccc3)CC2)nc2ccccc12`, the values for the inhibition constant Ki in assay [1] and in assay [2] were 228 nM and 43.5 nM, respectively.

For the compound `Cc1sc2nc(CCCCN3CCN(c4ccccc4)CC3)[nH]c(=O)c2c1C`, the Ratio Ki in the assay filed under Homo sapiens [3] stood at 10. The Ki (usually the dissociation constant of the complex between target and ligand, obtained from inhibition or displacement) turned out to be 357 nM in assay [1] and 37.4 nM in assay [2].

Turning to `Cc1sc2nc(CCCCCN3CCN(Cc4ccccc4)CC3)[nH]c(=O)c2c1C`, the inhibitory constant (Ki) in assay [1] was determined as 147 nM; in assay [2] it was 363 nM.

In the case of `O=c1[nH]c(CCCCN2CCN(c3cccc(Cl)c3)CC2)nc2ccccc12`, the Ki in assay [1] stood at 21.2 nM; in assay [2] it was 2.96 nM.

For `O=c1[nH]c(CCCCCN2CCN(c3ccc(Cl)cc3)CC2)nc2ccccc12`, the Ki in assay [1] stood at 101 nM; in assay [2], 116 nM.

As for `O=c1c2ccccc2ncn1CCCCCN1CCN(c2cccc(Cl)c2)CC1`, the Ki in assay [1] amounted to 35.8 nM; in assay [2], 6.28 nM.

Consider `Cc1sc2nc(CCCCCN3CCN(c4ccccc4)CC3)[nH]c(=O)c2c1C`, for which the Ki in assay [1] turned out to be 30.1 nM; in assay [2] it was 15.2 nM.

Turning to `Cc1sc2nc(CCCCCN3CCC(Cc4ccccc4)CC3)[nH]c(=O)c2c1C`, the Ki in assay [1] was 185 nM; in assay [2] it was 148 nM.

Turning to `Cc1sc2ncn(CCCCCN3CCN(Cc4ccccc4)CC3)c(=O)c2c1C`, the Ki in assay [1] was found to be 1650 nM; in assay [2] it was 211 nM.

As to `CC1CCN(CC[C@H]2CCCN2S(=O)(=O)c2cccc(O)c2)CC1`, the inhibition – broadly, the share of the control response that was lost under treatment – in assay [4] was determined as 90%.

Take `Cc1sc2nc(CCCCN3CCN(Cc4ccccc4)CC3)[nH]c(=O)c2c1C`: in assay [5], the inhibition was below 50%.

In the case of `O=c1c2ccccc2ncn1CCCCN1CCN(c2cccc(Cl)c2)CC1`, the Ki in assay [6] amounted to 50 nM; in assay [1], 502 nM; in assay [2], 5.3 nM.

Take `CCOc1ccccc1N1CCN(CCCCCn2cnc3ccccc3c2=O)CC1`: the Ki turned out to be 6.88 nM in assay [1] and 1.04 nM in assay [2]. Besides, the inhibition in assay [4] came out at 42%.

For `O=c1[nH]c(CCCCN2CCN(c3ccccc3)CC2)nc2ccccc12`, the Ki in assay [1] came to 145 nM; in assay [2], 36.6 nM.

With `O=c1c2ccccc2ncn1CCCCCN1CCN(c2ccc(Cl)cc2)CC1`, the Ki in assay [1] came to 12.9 nM; in assay [2], 51.5 nM.

Turning to `O=c1c2ccccc2ncn1CCCCCN1CCN(Cc2ccccc2)CC1`, the results for the Ki in assay [1] and in assay [2] were 1080 nM and 268 nM, respectively.

With `O=c1[nH]c(CCCCCN2CCN(c3cccc(Cl)c3)CC2)nc2ccccc12`, the figures for the Ki in assay [1] and in assay [2] were 11.9 nM and 7.33 nM, respectively.

With `Cc1sc2nc(CCCCCN3CCN(c4cccc(Cl)c4)CC3)[nH]c(=O)c2c1C`, the Ki is 68.4 nM in assay [1] and 114 nM in assay [2]. In addition, the Ratio Ki in the assay listed under Homo sapiens [7] was determined as 2.

On to `CCOc1ccccc1N1CCN(CCCCCn2cnc3sc(C)c(C)c3c2=O)CC1`, for which the Ki in assay [1] came to 2.99 nM; in assay [2], 1.03 nM. In assay [4], the inhibition was determined as 38%.

Regarding `O=c1c2ccccc2ncn1CCCCCN1CCN(c2ccccc2)CC1`, the Ki in assay [1] was found to be 307 nM; in assay [2], 28.9 nM.

As for `Cc1sc2nc(CCCCCN3CCN(c4ccc(Cl)cc4)CC3)[nH]c(=O)c2c1C`, the Ki in assay [1] amounted to 1460 nM; in assay [2], 53.9 nM.

With `Cc1sc2ncn(CCCCCN3CCN(c4ccccc4)CC3)c(=O)c2c1C`, the Ki was determined as 143 nM in assay [1] and 16.1 nM in assay [2].

For `NC(=O)c1ccccc1NC(=O)CCCCN1CCN(c2cccc(Cl)c2)CC1`, the Ki in assay [1] amounted to 168 nM; in assay [2] it was 39.6 nM.

Regarding `Cc1sc2ncn(CCCCCN3CCN(c4ccc(Cl)cc4)CC3)c(=O)c2c1C`, the Ki in assay [1] came out at 213 nM; in assay [2] it was 26.4 nM.

With `O=c1[nH]c(CCCCN2CCN(c3ccc(Cl)cc3)CC2)nc2ccccc12`, the Ki in assay [1] stood at 1140 nM; in assay [2], 75.3 nM.

Take `Cc1sc2nc(CCCCN3CCC(Cc4ccccc4)CC3)[nH]c(=O)c2c1C`: the inhibition in assay [5] was below 50%.

On to `Cc1sc2ncn(CCCCCN3CCN(c4cccc(Cl)c4)CC3)c(=O)c2c1C`, for which the Ratio Ki in the assay filed under Homo sapiens [3] amounted to 27. For the same compound, the Ki in assay [1] turned out to be 88.5 nM; in assay [2], 3.23 nM.
